Experimental data as given in ChEMBL document CHEMBL1649553, “Characterization of ermA in macrolide-susceptible strains of methicillin-resistant Staphylococcus aureus” (2009).
Values after ≈ are worked out from the molar mass of the structure shown.

Tested on: Staphylococcus aureus
Test: Antibacterial activity against methicillin-resistant Staphylococcus aureus
Format: functional

Compound | MIC
CCC[C@@H]1C[C@@H](C(=O)N[C@@H]([C@H]2O[C@H](SC)[C@H](O)[C@@H](O)[C@H]2O)[C@H](C)Cl)N(C)C1 [CLINDAMYCIN] | 0.5 µg/mL (≈ 1.18 µM)
CC[C@H]1OC(=O)[C@H](C)[C@@H](O[C@H]2C[C@@](C)(OC)[C@@H](O)[C@H](C)O2)[C@H](C)[C@@H](O[C@@H]2O[C@H](C)C[C@H](N(C)C)[C@H]2O)[C@](C)(O)C[C@@H](C)C(=O)[C@H](C)[C@@H](O)[C@]1(C)O [ERYTHROMYCIN] | 0.25 µg/mL (≈ 0.341 µM)
